Experimental data taken from patent EP0420552A2, “New antifungal antibiotic, and the production and uses of same” (ZAIDAN HOJIN BISEIBUTSU KAGAKU KENKYU KAI, priority 1989, dated 1991).
Converted amounts (≈) assume the structure as drawn.

How the values were obtained:
[1] = Solubility in organic solvents
[2] = test system: Cochliobolus miyabeanus; experiment: MIC by standard serial dilution method on nutrient agar; format: cell-based; details: Bipolaris oryzae, 42 h, pH 7, read-out: Minimum inhibitory concentrations
[3] = Acute toxicity in mice upon intravenous administration; format: in vivo; details: ICR mice (female, 4-week old, body weight of 19 to 21 g)
Experimental: Dexylosylbenanomicin A is of low toxicity to mammals, as it was shown that for estimation of acute toxicity in mice upon intravenous administration, dexylosylbenanomicin A was administered via the intravenous route to ICR mice (female, 4-week old, body weight of 19 to 21 g), the mice tolerated a dosage of 300 mg/kg of this new antibiotic.

[4] = test system: Pyricularia oryzae; experiment: microbe, parasite or virus in culture; format: cell-based; details: 42 h, pH 7, read-out: Minimum inhibitory concentrations
[5] = test system: Xanthomonas oryzae; experiment: microbe, parasite or virus in culture; format: cell-based; details: 42 h, pH 7, read-out: Minimum inhibitory concentrations
[6] = test system: Aspergillus niger F-16; experiment: MIC by standard serial dilution method on nutrient agar; format: cell-based; details: F16, nutrient agar medium containing 1% glucose (pH 7.0), 27°C, 42 hours, read-out: Minimum inhibitory concentrations
Experimental: (§1) The minimum inhibitory concentrations (MIC., mcg/ml) of dexylosylbenanomicin A against a variety of fungi were determined by a standard serial dilution method on a nutrient agar medium containing 1% glucose (pH 7.0) after incubation at 27°C for 42 hours and are shown in Table 1 below.

[7] = test system: Trichophyton asteroides 429; experiment: as above; format: cell-based; details: nutrient agar medium containing 1% glucose (pH 7.0), 27°C, 42 hours, read-out: Minimum inhibitory concentrations
Experimental: as §1

[8] = test system: Candida Yu-1200; experiment: as above; format: cell-based; details: YU1200, nutrient agar medium containing 1% glucose (pH 7.0), 27°C, 42 hours, read-out: Minimum inhibitory concentrations
Experimental: as §1

[9] = test system: Candida albicans 3147; experiment: as above; format: cell-based; details: nutrient agar medium containing 1% glucose (pH 7.0), 27°C, 42 hours, read-out: Minimum inhibitory concentrations
Experimental: as §1

[10] = test system: Candida tropicalis F-1; experiment: as above; format: cell-based; details: F1, nutrient agar medium containing 1% glucose (pH 7.0), 27°C, 42 hours, read-out: Minimum inhibitory concentrations
Experimental: as §1

[11] = test system: Pellicularia sasakii; experiment: as above; format: cell-based; details: nutrient agar medium containing 1% glucose (pH 7.0), 27°C, 42 hours, read-out: Minimum inhibitory concentrations
Experimental: as §1

[12] = test system: Candida krusei F-5; experiment: as above; format: cell-based; details: Pichia kudriavzevii, F5, nutrient agar medium containing 1% glucose (pH 7.0), 27°C, 42 hours, read-out: Minimum inhibitory concentrations
Experimental: as §1

[13] = test system: Cryptococcus neoformans F-10; experiment: as above; format: cell-based; details: F10, nutrient agar medium containing 1% glucose (pH 7.0), 27°C, 42 hours, read-out: Minimum inhibitory concentrations
Experimental: as §1

[14] = test system: Trichophyton mentagrophytes (883); experiment: as above; format: cell-based; details: nutrient agar medium containing 1% glucose (pH 7.0), 27°C, 42 hours, read-out: Minimum inhibitory concentrations
Experimental: as §1

[15] = test system: Saccharomyces cerivisiae F-7; experiment: as above; format: cell-based; details: F7, nutrient agar medium containing 1% glucose (pH 7.0), 27°C, 42 hours, read-out: Minimum inhibitory concentrations
Experimental: as §1

[16] = test system: Candida pseudotropicalis F-2; experiment: as above; format: cell-based; details: Kluyveromyces marxianus, F2, nutrient agar medium containing 1% glucose (pH 7.0), 27°C, 42 hours, read-out: Minimum inhibitory concentrations
Experimental: as §1

[17] = test system: Xanthomonas citri; experiment: as above; format: cell-based; details: 42 h, pH 7, read-out: Minimum inhibitory concentrations

COc1cc(O)c2c(c1)C(=O)c1c(cc3c(c1O)-c1c(cc(C)c(C(=O)N[C@H](C)C(=O)O)c1O)[C@H](O[C@@H]1O[C@H](C)[C@H](O)[C@H](O)[C@H]1O)[C@H]3O)C2=O [dexylosylbenanomicin A]
Solubility ([1]; in chloroform, ethyl acetate, acetone and methanol): Sparingly soluble
Solubility ([1]; in dimethyl sulfoxide and N,N-dimethylformamide): soluble
MIC [2]: > 25 µg/mL
acute toxicity: tolerated dosage [3]: 300 mg/kg
MIC [4]: 50 µg/mL (≈ 71.9 µM)
MIC [5]: 100 µg/mL (≈ 144 µM)
MIC [6]: 50 µg/mL (≈ 71.9 µM)
MIC [7]: > 25 µg/mL
MIC [8]: 6.25 µg/mL (≈ 8.98 µM)
MIC [9]: 12.5 µg/mL (≈ 18 µM)
MIC [10]: 12.5 µg/mL (≈ 18 µM)
MIC [11]: 25 µg/mL (≈ 35.9 µM)
MIC [12]: 50 µg/mL (≈ 71.9 µM)
MIC [13]: 12.5 µg/mL (≈ 18 µM)
MIC [14]: > 25 µg/mL
MIC [15]: 3.13 µg/mL (≈ 4.5 µM)
MIC [16]: 3.13 µg/mL (≈ 4.5 µM)
MIC [17]: > 100 µg/mL
